Experimental data taken from PubChem BioAssay (NCI).
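Following 48 hours of exposure in 96-well plates, responses at five concentrations were used to interpolate endpoints linearly. At the TGI there is no net growth.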

Assays:
Test in all cases: NCI tumour cell line growth inhibition, 48 h
[1] = test system: SN12C renal
[2] = test system: NCI-H460 lung
[3] = test system: BT-549 breast
[4] = test system: KM20L2 colon
[5] = test system: DLD-1 colon
[6] = test system: XF 498 CNS
[7] = test system: DMS 273 small cell lung
[8] = test system: LXFL 529 NSCLC
[9] = test system: M19-MEL melanoma
[10] = test system: DMS 114 small cell lung
[11] = test system: RXF-631 renal
[12] = test system: SNB-78 CNS
[13] = test system: HOP-18 NSCLC

O=C1NC(=O)C(c2c[nH]c3ccccc23)=C1c1cnc[nH]1
TGI [1]: > 100 µM
TGI [2]: > 100 µM
TGI [3]: > 100 µM

CCN(CC)CCC(=O)/C=C/c1ccccc1
TGI [1]: 38.6 µM
TGI [2]: 32.6 µM
TGI [3]: 21.9 µM

COc1cc(C(Cc2ccccc2)NC(C)=O)oc(=O)c1 (stereo not given)
TGI [4]: > 100 µM
TGI [5]: > 100 µM
TGI [6]: > 100 µM
TGI [1]: > 100 µM
TGI [2]: > 100 µM
TGI [7]: > 100 µM
TGI [8]: > 100 µM
TGI [9]: > 100 µM
TGI [10]: > 100 µM

CC1(C)COC(c2cccnc2/C=N/O)=N1
TGI [11]: > 100 µM
TGI [4]: > 100 µM
TGI [5]: > 100 µM
TGI [6]: > 100 µM
TGI [12]: > 100 µM
TGI [13]: > 100 µM
TGI [1]: > 100 µM
TGI [2]: > 100 µM
TGI [7]: > 100 µM
TGI [8]: > 100 µM
TGI [9]: > 100 µM

CO/N=C/c1cc(OC)c(OC)c(OC)c1
TGI [11]: > 100 µM
TGI [4]: > 100 µM
TGI [5]: > 100 µM
TGI [6]: > 100 µM
TGI [12]: > 100 µM
TGI [13]: > 100 µM
TGI [1]: > 100 µM
TGI [2]: > 100 µM
TGI [7]: > 100 µM
TGI [8]: > 100 µM
TGI [9]: > 100 µM
TGI [10]: > 100 µM

CCOc1cc2c(OCc3ccccc3)cc3c4cc(OC)c(OC)cc4c[n+](C)c3c2cc1OC
TGI [1]: > 100 µM
TGI [2]: > 58.9 µM
TGI [3]: 4.72 µM

CCCC(=O)n1[nH]c(=O)n(-c2ccc(Cl)cc2)c1=O
TGI [1]: > 100 µM
TGI [2]: > 100 µM
TGI [3]: > 100 µM

COC(=O)CC(C#N)(OP1(=O)OC(c2ccccc2)C(C)N1C)c1ccccc1 (stereo not given)
TGI [1]: 77 µM
TGI [2]: 44.4 µM
TGI [3]: > 100 µM

CC(C)(C)OC(=O)N1CCc2[nH][nH]c(=O)c2C1
TGI [1]: > 100 µM
TGI [2]: > 100 µM
TGI [3]: > 100 µM

CCOC(=O)C1=C(C)N(Cc2ccc(Cl)cc2Cl)C2(O)C=CC(=O)C3C(=O)N(c4ccccc4)C(=O)C132 (stereo not given)
TGI [1]: 4.93 µM
TGI [2]: 5.77 µM
TGI [3]: 3.27 µM

N#Cc1c(-c2ccc(Cl)cc2)c2c([nH]c1=O)-c1ccccc1SC2
TGI [1]: > 100 µM
TGI [2]: > 100 µM
TGI [3]: > 100 µM

CCCn1c2ccccc2c2ccc3c(c21)C(=O)C=CC3=O
TGI [1]: > 7.53 µM
TGI [2]: > 10 µM
TGI [3]: 4.9 µM

O=C(O)CC(CC(=O)O)C(=O)O
TGI [1]: > 100 µM
TGI [2]: > 100 µM
TGI [3]: > 100 µM

COc1ccc(C2C(Cl)C(=O)N2n2cnc3ccccc3c2=O)cc1 (stereo not given)
TGI [4]: > 100 µM
TGI [5]: > 100 µM
TGI [6]: > 100 µM
TGI [12]: > 100 µM
TGI [13]: > 100 µM
TGI [1]: > 100 µM
TGI [2]: > 100 µM
TGI [7]: > 100 µM
TGI [8]: > 100 µM
TGI [9]: > 100 µM
TGI [10]: > 100 µM

COc1cc2cc3c4c(cc(OC)c(OC)c4c2cc1OC)CCN3C(=O)OCCN1CCNCC1
TGI [4]: 24.9 µM
TGI [5]: 29.1 µM
TGI [6]: 29.4 µM
TGI [12]: 31.4 µM
TGI [13]: 30.7 µM
TGI [1]: 29.9 µM
TGI [2]: 26.6 µM
TGI [7]: 26.5 µM
TGI [8]: 28.3 µM
TGI [9]: 19.6 µM

CC1(c2cccs2)CC(c2cccs2)=C(C#N)C(=C(C#N)C#N)N1 (stereo not given)
TGI [1]: 35.6 µM
TGI [2]: 43.9 µM
TGI [3]: 57.5 µM

C/C(=N\NC(=S)N1CCCCC1)c1nc2ncccc2[nH]1
TGI [1]: > 100 µM
TGI [2]: 49.8 µM
TGI [3]: 28.3 µM

CC1=CC(C)C/C=C/C2C3OC3(C)C(C)C3C(Cc4c[nH]c5ccccc45)NC(=O)C23C(=O)C=CC(=O)C1O (stereo not given)
TGI [1]: 30.7 µM
TGI [2]: 27.6 µM
TGI [3]: 10.3 µM

O=c1cnn(C2OC(C(O)CO)C(O)C2O)c(=O)[nH]1 (stereo not given)
TGI [1]: > 100 µM
TGI [2]: > 100 µM
TGI [3]: > 100 µM

CCCCS(=O)CCC(N)P(=O)(O)O (stereo not given)
TGI [1]: > 100 µM
TGI [2]: > 100 µM
TGI [3]: > 100 µM

N#Cc1nc2ccccc2nc1N1CCN(c2ccc([N+](=O)[O-])cc2)CC1
TGI [1]: > 100 µM
TGI [2]: > 100 µM
TGI [3]: > 100 µM

COc1cc(/C=C2\C[C@H]3[C@@H]4CCc5cc(O)ccc5[C@H]4CC[C@]3(C)C2=O)cc(OC)c1OC
TGI [1]: 39.5 µM
TGI [2]: > 100 µM
TGI [3]: 42.6 µM

CN=c1nc2sc3c(c2c(NC(=S)NC)s1)CCCC3
TGI [1]: > 100 µM
TGI [2]: > 100 µM
TGI [3]: > 100 µM

NS(=O)(=O)c1ccc(N=Nc2nc3[nH]c(=O)[nH]c(=O)c3[nH]2)cc1
TGI [1]: > 100 µM
TGI [2]: > 100 µM
TGI [3]: > 100 µM
